In patent US4764591A, “Des-19-leucine, 20-glutamine, 21-threonine, 22-tyrosine-calcitonin” (Rorer Pharmaceutical Corporation, priority 1987, dated 1988):
Positions of bridges follow the written chain, without caps; N, C: chain ends. Residues, ends and D or L forms follow the SMILES beside them.

Assays:
[1] = tested on: serum calcium concentration
Procedure: Biological Assay of Calcitonin Analogs in Vivo
Rats were divided into four groups of seven animals, and each group was assigned at random to a dose of standard or test solution. Low and high doses were chosen from the linear portion of the dose-response curve. For the salmon calcitonin standard, the values were 0.7 and 2.1 ng. peptide/100 g. body weight (BW). This dose approximates 3 and 9 MU/100 g. BW. Peptides were given by subcutaneous injection (0.2 ml/100 g. BW) and blood was withdrawn 1 hour later for serum calcium determination. Sera are processed and analyzed within two hours of collection. Results were analyzed within two hours of collection.

[2] = literature values; cited from earlier work

Compound | hypocalcemic potency [2] | other results
CC(C)C[C@H](NC(=O)[C@H](CCCCN)NC(=O)CNC(=O)[C@H](CC(C)C)NC(=O)[C@@H](NC(=O)[C@@H]1CSSC[C@H](N)C(=O)N[C@@H](CO)C(=O)N[C@@H](CC(N)=O)C(=O)N[C@@H](CC(C)C)C(=O)N[C@@H](CO)C(=O)N[C@@H]([C@@H](C)O)C(=O)N1)C(C)C)C(=O)N[C@@H](CO)C(=O)N[C@@H](CCC(N)=O)C(=O)N[C@@H](CCC(=O)O)C(=O)N[C@@H](CC(C)C)C(=O)N[C@@H](Cc1c[nH]cn1)C(=O)N[C@@H](CCCCN)C(=O)N1CCC[C@H]1C(=O)N[C@@H](CCCNC(=N)N)C(=O)N[C@H](C(=O)N[C@@H](CC(N)=O)C(=O)N[C@H](C(=O)NCC(=O)N[C@@H](CO)C(=O)NCC(=O)N[C@H](C(=O)N1CCC[C@H]1C(N)=O)[C@@H](C)O)[C@@H](C)O)[C@@H](C)O [des-Leu^19, Gln^20, Thr^21, Tyr^22 -SCT, des-19-leucine, 20-glutamine, 21-threonine, 22-tyrosine-salmon calcitonin] (H-CSNLSTCVLGKLSQELHKPRTNTGSGTP-NH2; disulfide 1-7) | – | biological potency ([1]; rat, in vivo, sc): 6250 IU/mg
CC(C)C[C@H](NC(=O)[C@H](CCCCN)NC(=O)CNC(=O)[C@H](CC(C)C)NC(=O)[C@@H](NC(=O)[C@@H]1CSSC[C@H](N)C(=O)N[C@@H](CO)C(=O)N[C@@H](CC(N)=O)C(=O)N[C@@H](CC(C)C)C(=O)N[C@@H](CO)C(=O)N[C@@H]([C@@H](C)O)C(=O)N1)C(C)C)C(=O)N[C@@H](CO)C(=O)N[C@@H](CCC(N)=O)C(=O)N[C@@H](CCC(=O)O)C(=O)N[C@@H](CC(C)C)C(=O)N[C@@H](Cc1c[nH]cn1)C(=O)N[C@@H](CCCCN)C(=O)N[C@@H](CC(C)C)C(=O)N[C@@H](CCC(N)=O)C(=O)N[C@H](C(=O)N[C@@H](Cc1ccc(O)cc1)C(=O)N1CCC[C@H]1C(=O)N[C@@H](CCCNC(=N)N)C(=O)N[C@H](C(=O)N[C@@H](CC(N)=O)C(=O)N[C@H](C(=O)NCC(=O)N[C@@H](CO)C(=O)NCC(=O)N[C@H](C(=O)N1CCC[C@H]1C(N)=O)[C@@H](C)O)[C@@H](C)O)[C@@H](C)O)[C@@H](C)O [standard salmon calcitonin, salmon calcitonin] | – | potency content of the standard, independently determined ([1]; standard salmon calcitonin used in the assay, independently determined): greater than 4,000 IU/mg
(1,7-alpha-L-amino-suberic acid) eel calcitonin | about 3400 IU/mg. | –
eel calcitonin [synthetic eel calcitonin] | around 4300 IU/mg. | –
